The supplement of paper PMC10307832

What was measured:
Experiment in all cases: relative viability (nuclei count vs DMSO), 5 days (fraction); higher = more cells survive
[1] = compound: CC1=C(C=C(C=C1)NC(=O)C2=CC(=CC=C2)C(C)(C)C#N)NC3=CC4=C(C=C3)N=CN(C4=O)C [AZ628] + Cc1nc(Nc2ncc(C(=O)Nc3c(C)cccc3Cl)s2)cc(N2CCN(CCO)CC2)n1 [Dasatinib] (partner 0.075 µM)
Outline: (§1)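 Relative viability is defined as nuclei in treated wells over nuclei in vehicle wells. Duplicate plates were run and medians reported. Lung cancer cell lines in 1536-well plates were dosed by pin tool one day after seeding, with one drug or with a fixed anchor-drug dose plus five library-drug doses (not always all listed) in √10 steps, and nuclei were counted after 5 days.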

[2] = compound: C[As](C)SC[C@H](NC(=O)CC[C@H](N)C(=O)O)C(=O)NCC(=O)O [Darinaparsin] + CS(=O)(=O)CCNCc1ccc(-c2ccc3ncnc(Nc4ccc(OCc5cccc(F)c5)c(Cl)c4)c3c2)o1 [Lapatinib] (partner 2 µM)
Outline: as §1

[3] = compound: C[As](C)SC[C@H](NC(=O)CC[C@H](N)C(=O)O)C(=O)NCC(=O)O [Darinaparsin] + N=C(N)NC(=N)NCCc1ccccc1 [Phenformin] (partner 250 µM)
Outline: as §1

[4] = compound: C1CC2=C(C1)C=C(C=C2)OC3=NC(=C4C(=N3)N(C=N4)CC5=CC=C(C=C5)C6=CC=CC=C6)N[C@@H](CC7=CC=CC=C7)CO [QS11] + Cc1nc(Nc2ncc(C(=O)Nc3c(C)cccc3Cl)s2)cc(N2CCN(CCO)CC2)n1 [Dasatinib] (partner 0.075 µM)
Outline: as §1

Cell Line | relative viability ([1]; first compound 0.08 µM) | relative viability ([1]; first compound 0.253 µM) | relative viability ([1]; first compound 0.8 µM) | relative viability ([1]; first compound 2.53 µM) | relative viability ([1]; first compound 8 µM) | relative viability ([2]; first compound 0.08 µM) | relative viability ([2]; first compound 0.8 µM) | relative viability ([2]; first compound 2.53 µM) | relative viability ([2]; first compound 8 µM) | relative viability ([3]; first compound 0.08 µM) | relative viability ([3]; first compound 0.8 µM) | relative viability ([3]; first compound 2.53 µM) | relative viability ([3]; first compound 8 µM) | relative viability ([4]; first compound 0.08 µM) | relative viability ([4]; first compound 0.253 µM) | relative viability ([4]; first compound 2.53 µM) | relative viability ([4]; first compound 8 µM) | relative viability ([4]; first compound 0.8 µM)
NCI-H3122 | 0.819 | 0.39 | 0.15 | 0.212 | 0.176 | 1.16 | 0.986 | 1.03 | 1.14 | 0.435 | 0.328 | 0.378 | 0.411 | 0.876 | 0.82 | 0.969 | 0.538 | 
PC-3 [JPC-3] | 0.936 | 0.893 | 1.02 | 1.05 | 0.604 | 0.458 | 0.364 | 0.411 | 0.492 | 0.534 | 0.481 | 0.436 | 0.467 | 0.992 | 1.05 | 1.13 | 1.08 | 0.954
PC-14 | 0.274 | 0.289 | 0.315 | 0.262 | 0.146 | 0.333 | 0.294 | 0.32 | 0.372 | 0.653 | 0.55 | 0.716 | 0.698 | 0.223 | 0.201 | 0.26 | 0.15 | 0.289
RERF-LC-KJ | 0.737 | 0.72 | 0.752 | 0.75 | 0.64 | 1.11 | 0.849 | 0.762 | 1.03 | 0.495 | 0.447 | 0.369 | 0.434 | 0.921 | 0.836 | 0.61 | 0.534 | 0.764
SK-LU-1 |  | 0.179 | 0.231 | 0.208 | 0.22 | 1.08 | 0.802 | 0.574 | 0.932 | 0.777 | 0.417 | 0.384 | 0.743 | 0.175 | 0.158 | 0.167 | 0.169 | 0.172
SK-MES-1 | 0.347 | 0.342 | 0.287 | 0.338 | 0.218 | 0.539 | 0.444 | 0.439 | 0.519 | 0.783 | 0.592 | 0.594 | 0.667 | 0.374 | 0.307 | 0.326 | 0.297 | 0.425
SW 1573 | 0.535 | 0.422 | 0.381 | 0.434 | 0.302 | 1.1 | 1.1 | 1.09 | 1.22 | 0.438 | 0.359 | 0.378 | 0.37 | 0.537 | 0.635 | 0.393 | 0.329 | 0.545
UMC-11 | 0.659 | 0.448 | 0.474 | 0.5 | 0.47 | 1.22 | 0.977 | 0.928 | 1.05 | 0.369 | 0.341 | 0.357 | 0.325 | 0.473 | 0.5 | 0.583 | 0.681 | 0.494
